Source: US20240182513A1, “SEPARATION OF METAL IONS FROM A SAMPLE USING GLYCOLIPIDS” (ARIZONA BOARD OF REGENTS ON BEHALF OF THE UNIVERSITY OF …, priority 2021, published 2024)

Legend:
[1] = Example 2.1 rhamnolipid precipitation, filtration, centrifugation: lead; details: for Treatment 2: Rhamnolipid and Filtration Cf / Treatment 3: Rhamnolipid and Centrifugation Cc / Treatment 1: Rhamnolipid Only Cr: lead concentration after treatment; for Treatment 1: Rhamnolipid Only (Rr) efficiency of removal / Treatment 2: Rhamnolipid and Filtration (Rf) efficiency of removal / Treatment 3: Rhamnolipid and Centrifugation (Rc) efficiency of removal: lead
Procedure: (§1) Structural variants of synthetic glycolipids were used to show the effect of the number and length of the hydrophobic tail(s) on rhamnolipid as a chemical precipitant. […] Solutions (10 mM) were made using nanopure water (≥18 MΩ-cm) then adjusted to a pH of 6.9±0.05 with HNO3 and NaOH. These solutions were made in advance and stored in the cold room for up to one month. They were brought to room temperature before each experiment.
(§2) Three metals were tested for binding with rhamnolipid. Lead as […] (Fisher Scientific, Waltham, MA, 99% purity), was chosen to represent a metal with high rhamnolipid-metal conditional stability constant; lanthanum as La(NO3)3 6(H2O) (Sigma-Aldrich, St. Louis, MO, 99.99% purity) was chosen as a representative REE; and magnesium as Mg(NO3)2 6(H2O) (Sigma-Aldrich, St. Louis, MO, 99% purity) was chosen to represent a metal with a low rhamnolipid-metal conditional stability constant (Hogan et al., 2017). Metal solutions (5 mM) were made using nanopure water (≥18 MΩ-cm) in 20 ml glass scintillation vials. All solutions were used within 15 min to ensure minimal adsorption to the glass vial.
(§3) Three glycolipid-based treatments were evaluated to remove metal from solution: (1) the addition of glycolipid with no further treatment (gravitational precipitation), (2) the addition of a glycolipid followed by filtration or (3) the addition of a glycolipid followed by centrifugation. Each metal (Pb, La, and Mg) was evaluated separately with each of the glycolipid structures. For each experiment, a metal solution was mixed with a glycolipid solution in a 1.7 ml reaction tube at varying molar ratios of glycolipid to metal: 0:1 (glycolipid-free control), 2:1, 5:1, and 10:1. The reactions were mixed in the order of nanopure water (≥18 MΩ-cm), glycolipid solution (10 mM), then metal solution (5 mM). The metal and glycolipid solutions were continuously stirred as they were aliquoted into the reaction tubes. The experiment was performed in triplicate.
(§4) The reaction tubes were mixed overnight (16 to 24 h) and then three samples were collected from each tube to measure the effect of each of the three treatments: a glycolipid only treatment sample, a filtration treatment sample, and a centrifugation treatment sample. Briefly, for the glycolipid only treatment samples all tubes were vortexed for approximately 5 sec immediately before removing 0.1 ml into a dilution tube of 2% trace metal grade nitric acid (12 to 14 ml) to minimize the settling of particles. For the filtration samples each reaction tube was vortexed for 5 sec and then a 0.6 ml aliquot was collected with a 1 ml syringe. A GHP acrodisc disk filter (hydrophilic polypropylene membrane, 0.45 μm pore size, 25 mm disc diameter) from Pall Life Sciences (Port Washington, New York) was then placed onto the end of the syringe and the solution was pushed through the filter. The void space in the disk filter holds approximately 0.5 ml, therefore around 0.1 ml of filtrate was collected into a dilution tube. For the centrifugation sample, the remaining solution was centrifuged at 10,000 RCF for 15 min. Approximately 0.1 ml of the supernatant was aliquoted into a dilution tube. Following collection, all samples were taken for metal analysis using ICP-MS.

[2] = Example 2.1 rhamnolipid precipitation, filtration, centrifugation: lanthanum; details: for Treatment 2: Rhamnolipid and Filtration Cf / Treatment 3: Rhamnolipid and Centrifugation Cc / Treatment 1: Rhamnolipid Only Cr: lanthanum concentration after treatment; for Treatment 1: Rhamnolipid Only (Rr) efficiency of removal / Treatment 2: Rhamnolipid and Filtration (Rf) efficiency of removal / Treatment 3: Rhamnolipid and Centrifugation (Rc) efficiency of removal: lanthanum
Procedure: as §1, §2, §3, §4

[3] = Example 2.1 rhamnolipid precipitation, filtration, centrifugation: magnesium; details: for Treatment 2: Rhamnolipid and Filtration Cf / Treatment 3: Rhamnolipid and Centrifugation Cc / Treatment 1: Rhamnolipid Only Cr: magnesium concentration after treatment; for Treatment 2: Rhamnolipid and Filtration (Rf) efficiency of removal: magnesium
Procedure: as §1, §2, §3, §4

Which results are given for CCCCCCCCCCCC(CC(=O)O)OC1O[C@@H](C)[C@H](O)[C@@H](O)[C@H]1O (stereo partly shown) [Rha C14]?
Treatment 2: Rhamnolipid and Filtration Cf ([1]; molar ratio 2 to 1): 0.031 ± 0.030 mmol/L; Treatment 3: Rhamnolipid and Centrifugation Cc ([1]; molar ratio 2 to 1): 0.194 ± 0.006 mmol/L; Treatment 1: Rhamnolipid Only Cr ([1]; molar ratio 5 to 1): 0.315 ± 0.004 mmol/L; Treatment 2: Rhamnolipid and Filtration Cf ([1]; molar ratio 5 to 1): 0.000 ± 0.000 mmol/L; Treatment 3: Rhamnolipid and Centrifugation Cc ([1]; molar ratio 5 to 1): 0.315 ± 0.006 mmol/L; Treatment 1: Rhamnolipid Only Cr ([1]; molar ratio 10 to 1): 0.311 ± 0.008 mmol/L; Treatment 2: Rhamnolipid and Filtration Cf ([1]; molar ratio 10 to 1): 0.001 ± 0.001 mmol/L; Treatment 3: Rhamnolipid and Centrifugation Cc ([1]; molar ratio 10 to 1): 0.327 ± 0.001 mmol/L; Treatment 1: Rhamnolipid Only Cr ([1]; molar ratio rhamnolipid:lead 2 to 1): 0.278 ± 0.011 mmol/L; Treatment 1: Rhamnolipid Only (Rr) efficiency of removal ([1]; molar ratio 2 to 1): (13.3%); Treatment 2: Rhamnolipid and Filtration (Rf) efficiency of removal ([1]; molar ratio 2 to 1): (90.2%); Treatment 3: Rhamnolipid and Centrifugation (Rc) efficiency of removal ([1]; molar ratio 2 to 1): (39.4%); Treatment 1: Rhamnolipid Only (Rr) efficiency of removal ([1]; molar ratio 5 to 1): (1.6%); Treatment 2: Rhamnolipid and Filtration (Rf) efficiency of removal ([1]; molar ratio 5 to 1): (100.0%); Treatment 3: Rhamnolipid and Centrifugation (Rc) efficiency of removal ([1]; molar ratio 5 to 1): (1.8%); Treatment 1: Rhamnolipid Only (Rr) efficiency of removal ([1]; molar ratio 10 to 1): (3.0%); Treatment 2: Rhamnolipid and Filtration (Rf) efficiency of removal ([1]; molar ratio 10 to 1): (99.7%); Treatment 2: Rhamnolipid and Filtration Cf ([2]; molar ratio 2 to 1): 0.164 ± 0.058 mmol/L; Treatment 3: Rhamnolipid and Centrifugation Cc ([2]; molar ratio 2 to 1): 0.221 ± 0.014 mmol/L; Treatment 1: Rhamnolipid Only Cr ([2]; molar ratio 5 to 1): 0.215 ± 0.024 mmol/L; Treatment 2: Rhamnolipid and Filtration Cf ([2]; molar ratio 5 to 1): 0.044 ± 0.007 mmol/L; Treatment 3: Rhamnolipid and Centrifugation Cc ([2]; molar ratio 5 to 1): 0.094 ± 0.002 mmol/L; Treatment 1: Rhamnolipid Only Cr ([2]; molar ratio 10 to 1): 0.314 ± 0.016 mmol/L; Treatment 2: Rhamnolipid and Filtration Cf ([2]; molar ratio 10 to 1): 0.0 ± 0.000 mmol/L; Treatment 3: Rhamnolipid and Centrifugation Cc ([2]; molar ratio 10 to 1): 0.006 ± 0.001 mmol/L; Treatment 1: Rhamnolipid Only Cr ([2]; molar ratio rhamnolipid:lanthanum 2 to 1): 0.247 ± 0.034 mmol/L; Treatment 1: Rhamnolipid Only (Rr) efficiency of removal ([2]; molar ratio 2 to 1): (16.9%); Treatment 2: Rhamnolipid and Filtration (Rf) efficiency of removal ([2]; molar ratio 2 to 1): (44.9%); Treatment 3: Rhamnolipid and Centrifugation (Rc) efficiency of removal ([2]; molar ratio 2 to 1): (25.8%); Treatment 1: Rhamnolipid Only (Rr) efficiency of removal ([2]; molar ratio 5 to 1): (27.7%); Treatment 2: Rhamnolipid and Filtration (Rf) efficiency of removal ([2]; molar ratio 5 to 1): (85.3%); Treatment 3: Rhamnolipid and Centrifugation (Rc) efficiency of removal ([2]; molar ratio 5 to 1): (68.5%); Treatment 2: Rhamnolipid and Filtration (Rf) efficiency of removal ([2]; molar ratio 10 to 1): 1.0 (99.9%); Treatment 3: Rhamnolipid and Centrifugation (Rc) efficiency of removal ([2]; molar ratio 10 to 1): (98.0%); Treatment 2: Rhamnolipid and Filtration Cf ([3]; molar ratio 2 to 1): 0.147 ± 0.045 mmol/L; Treatment 3: Rhamnolipid and Centrifugation Cc ([3]; molar ratio 2 to 1): 0.292 ± 0.008 mmol/L; Treatment 1: Rhamnolipid Only Cr ([3]; molar ratio 5 to 1): 0.300 ± 0.018 mmol/L; Treatment 2: Rhamnolipid and Filtration Cf ([3]; molar ratio 5 to 1): 0.088 ± 0.042 mmol/L; Treatment 3: Rhamnolipid and Centrifugation Cc ([3]; molar ratio 5 to 1): 0.279 ± 0.016 mmol/L; Treatment 1: Rhamnolipid Only Cr ([3]; molar ratio 10 to 1): 0.302 ± 0.017 mmol/L; Treatment 2: Rhamnolipid and Filtration Cf ([3]; molar ratio 10 to 1): 0.009 ± 0.004 mmol/L; Treatment 3: Rhamnolipid and Centrifugation Cc ([3]; molar ratio 10 to 1): 0.219 ± 0.021 mmol/L; Treatment 1: Rhamnolipid Only Cr ([3]; molar ratio rhamnolipid:magnesium 2 to 1): 0.291 ± 0.005 mmol/L; Treatment 2: Rhamnolipid and Filtration (Rf) efficiency of removal ([3]; molar ratio 2 to 1): (45.0%); Treatment 2: Rhamnolipid and Filtration (Rf) efficiency of removal ([3]; molar ratio 5 to 1): (66.9%); Treatment 2: Rhamnolipid and Filtration (Rf) efficiency of removal ([3]; molar ratio 10 to 1): (96.6%)
